From PMC9706574, “A Versatile and Sustainable Multicomponent Platform for the Synthesis of Protein Degraders: Proof-of-Concept Application to BRD4-Degrading PROTACs” (Journal of Medicinal Chemistry, 2022)
In brackets after ≈: the same amount, converted by molar mass. Marks after values point to notes of the source that are not given here.

Experiments:
BRD4 = target: T1, BRD4 (Homo sapiens, UniProt O60885); assay: BRD4 degradation by Western blot analysis in MDA-MB-231 cells; format: cell-based; conditions: for dose-response of BRD4 degradation (in words): 100 nM to 10 μM; for effect of cotreatment with proteasome inhibitor bortezomib on BRD4 degradation: 1 μM compound + 5 nM bortezomib; for BRD4 degradation in time-course experiments (in words): 1 μM, 4 up to 24 h; for DC50: 8 h treatment, from Western blot densitometry
T1 construct: endogenous in cells; host or cells: MDA-MB-231
Method: In Vitro Biological Validation of PROTACs and Preliminary Assessment of Thermodynamic Aqueous Solubility and Metabolic Stability of Selected BRD4-Degrading PROTACs. With the aim of proving the utility of our platform and the compatibility of the substructures accessible by the MCR strategy with a proximity-based degradation, the ability of our PROTAC candidates to effectively act as BRD4 degraders was tested in the human breast cancer cell line MDA-MB-231, known to express detectable levels of this protein.
The human breast adenocarcinoma MDA-MB-231 cell line was cultured in DMEM (Sigma-Aldrich) supplemented with 10% fetal bovine serum (FBS), 1% glutamine, and 1% penicillin/streptomycin. For Western blot analysis, […] cells/well were plated into 12-well plates containing DMEM complete growth medium, to be treated with the synthesized compounds, at the indicated concentrations, for different time lengths. After treatments, cells were scraped and lysed to obtain protein extract using RIPA lysis buffer supplemented with protease (PIC, Merck-Millipore) and phosphatase inhibitors (NaF 1 M, Na3VO4 1 M, PMSF […], Sigma-Aldrich). Cells lysates were centrifuged at 13 000 rpm for 10 min at 4 °C to remove membranes and insoluble fractions. Protein quantification of the supernatant fraction was performed with Braford protein assay (Sigma-Aldrich). […] aliquots of protein extracts were used for 12% SDS-PAGE. After transfer into nitrocellulose membranes, BRD4 and tubulin protein levels were evaluated by immunoblotting using a rabbit polyclonal anti-BRD4 (Bethyl Laboratories) and a mouse monoclonal α-tubulin (Sigma-Aldrich) IgG as primary antibodies and an antirabbit or antimouse HRP-conjugated secondary antibody (Bio-Rad Laboratories). Protein levels were detected by chemiluminescent conversion of the HRP substrate LumiGLO (Thermo Fisher Scientific) using the ChemiDoc imaging system (Bio-Rad). Band densitometry was assessed, normalized to α-tubulin immunoreactive bands, and reported as percentage of the 0.3% DMSO control lane.

[1] = Thermodynamic aqueous solubility; format: physicochemical
Method: Saturated solutions were prepared by dissolving the tested compounds in 0.1 M phosphate-buffered saline (pH = 7.4) or 0.01 N HCl solutions and sonicated for 30 s. After equilibration on an orbital shaker at 25 °C for 2 h, the solutions were centrifuged at 13 000 rpm for 5 min and filtered through a 0.2 μm regenerated cellulose (RC) syringe filter. A 400 μL aliquot of each filtrate was diluted with 100 μL of acetonitrile and analyzed by LC-UV. When the measured peak area was out of the calibration range (5–100 μM), the sample was further diluted in water–acetonitrile 1:1 mixture.

[2] = Metabolic stability in mouse liver microsomes (MLM); format: in vitro ADME
Method: To this aim, we evaluated the metabolic stability of the five selected PROTACs in mouse liver microsomes (MLM).
Mouse liver microsomes (MLM) (pooled male mouse CD-1, protein concentration: 20 mg/mL) were purchased from Corning B.V. Life Sciences (Amsterdam, The Netherlands). The standard incubation mixture (250 μL final volume) was carried out in a 50 mM Tris (tris[hydroxymethyl]aminomethane) buffer (pH 7.4) containing 150 mM KCl, 1.5 mM, 3.3 mM MgCl2, 1.3 mM NADPNa2, 3.3 mM glucose 6-phosphate, 0.4 units/mL glucose 6-phosphate dehydrogenase, acetonitrile as cosolvent (1% of total volume), and the substrate (50 μM). After pre-equilibration of the mixture, an appropriate volume of MLM suspension was added to give a final protein concentration of 1.0 mg/mL. The mixture was shaken for 60 min at 37 °C. Control incubations were carried out without the presence of an NADPH-regenerating system or microsomes. Each incubation was stopped by the addition of 250 μL of ice-cold acetonitrile, vortexed, and centrifuged at 13 000 rpm for 5 min. The supernatants were analyzed by LC-UV.

[3] = design: method as in PMID 28378579; conditions: cited from earlier work
[4] = design: method as in PMID 33026811; conditions: physiological pH, in 3 h; cited from earlier work
[5] = 0.01 N HCl solution, HCl 0.01 N, pH 2.0, 25 °C
[6] = phosphate-buffered saline, PBS 0.1 M, pH 7.4, 25 °C

Row | Structure (SMILES) | effect of cotreatment with proteasome inhibitor bortezomib on BRD4 degradation (BRD4; 8 h) | DC50 (BRD4; MDA-MB-231 cells) [nM] | solubility thermodynamic at 2 h [1, 5] [µM] | solubility thermodynamic at 2 h [1, 6] [µM] | melting point | concentration of maximal BRD4 degradation (BRD4; dose-response 100 nM to 10 μM, 8 h, MDA-MB-231 cells) [nM] | solubility at physiological pH (in words) ([1]; pH 7.4) | metabolic stability in MLM (in words) [2] | dose-response of BRD4 degradation (in words) (BRD4; 8 h, MDA-MB-231 cells) | BRD4 degradation in time-course experiments (in words) (BRD4; MDA-MB-231 cells) | Thermodynamic aqueous solubility, HCl 0.01 N (pH = 2.0) ([3]; pH 2.0, literature data ref 58) | Thermodynamic aqueous solubility, PBS 0.1 M (pH = 7.4) ([3]; pH 7.4, literature data ref 58) | hydrolytic degradation [4]
1 | Cc1sc2c(c1C)C(c1ccc(Cl)cc1)=N[C@@H](CC(=O)OCC(=O)NCCCCOc1cccc3c1C(=O)N(C1CCC(=O)NC1=O)C3=O)c1nnc(C)n1-2 (stereo partly drawn) [Compound 37, 2-((4-((2-(2,6-Dioxopiperidin-3-yl)-1,3-dioxoisoindolin-4-yl)oxy)butyl)amino)-2-oxoethyl2-((S)-4-(4-chlorophenyl)-2,3,9-trimethyl-6H-thieno[3,2-f][1,2,4]triazolo[4,3-a][1,4]diazepin-6-yl)acetate] |  |  | 18 (≈ 14.2 µg/mL) | 8 (≈ 6.29 µg/mL) | 105.2 to 107 °C (dec.) |  | the least soluble | highly stable in MLM |  |  |  |  | 
2 | Cc1sc2c(c1C)C(c1ccc(Cl)cc1)=N[C@@H](CC(=O)NCCCCNC(=O)COc1cccc3c1C(=O)N(C1CCC(=O)NC1=O)C3=O)c1nnc(C)n1-2 (some centres unmarked) [dBET1] |  |  |  |  |  |  |  |  |  |  | 171 ^c μM | 60 ^c μM | 
3 | O=C1CCC(N2C(=O)c3ccccc3C2=O)C(=O)N1 (centres unmarked) [thalidomide] |  |  |  |  |  |  |  |  |  |  |  |  | about 30%

Second part, led by results:

Row | effect of cotreatment with proteasome inhibitor bortezomib on BRD4 degradation (BRD4; 8 h) | DC50 (BRD4; MDA-MB-231 cells) [nM] | solubility thermodynamic at 2 h [1, 5] [µM] | solubility thermodynamic at 2 h [1, 6] [µM] | melting point | concentration of maximal BRD4 degradation (BRD4; dose-response 100 nM to 10 μM, 8 h, MDA-MB-231 cells) [nM] | solubility at physiological pH (in words) ([1]; pH 7.4) | metabolic stability in MLM (in words) [2] | Structure (SMILES) | dose-response of BRD4 degradation (in words) (BRD4; 8 h, MDA-MB-231 cells) | BRD4 degradation in time-course experiments (in words) (BRD4; MDA-MB-231 cells) | Thermodynamic aqueous solubility, HCl 0.01 N (pH = 2.0) ([3]; pH 2.0, literature data ref 58) | Thermodynamic aqueous solubility, PBS 0.1 M (pH = 7.4) ([3]; pH 7.4, literature data ref 58) | hydrolytic degradation [4]
4 | abolish BRD4 degradation | 184 | 39 (≈ 31.2 µg/mL) | 15 (≈ 12 µg/mL) | 223.4 to 225.1 °C (dec.) |  |  |  | Cc1sc2c(c1C)C(c1ccc(Cl)cc1)=N[C@@H](CC(=O)NCC(=O)NCCCCCOc1cccc3c1C(=O)N(C1CCC(=O)NC1=O)C3=O)c1nnc(C)n1-2 (stereo partly drawn) [Compound 29, 2-((S)-4-(4-Chlorophenyl)-2,3,9-trimethyl-6H-thieno[3,2-f][1,2,4]triazolo[4,3-a][1,4]diazepin-6-yl)-N-(2-((5-((2-(2,6-dioxopiperidin-3-yl)-1,3-dioxoisoindolin-4-yl)oxy)pentyl)amino)-2-oxoethyl)acetamide] | degradation was observed only at 1 and 3 μM concentrations | decreased expression of BRD4 at all the time-points tested |  |  | 
5 | abolish BRD4 degradation | 60 | 5070 (≈ 4410 µg/mL) | 11 (≈ 9.55 µg/mL) | 194.8 to 196.8 °C (dec.) | 300 |  |  | Cc1sc2c(c1C)C(c1ccc(Cl)cc1)=N[C@@H](CC(=O)N1CCN(CC(=O)NCCCCCOc3cccc4c3C(=O)N(C3CCC(=O)NC3=O)C4=O)CC1)c1nnc(C)n1-2 (stereo partly drawn) [Compound 34, 2-(4-(2-((S)-4-(4-Chlorophenyl)-2,3,9-trimethyl-6H-thieno[3,2-f][1,2,4]triazolo[4,3-a][1,4]diazepin-6-yl)acetyl)piperazin-1-yl)-N-(5-((2-(2,6-dioxopiperidin-3-yl)-1,3-dioxoisoindolin-4-yl)oxy)pentyl)acetamide] | showed the well-known “hook effect” | decreased expression of BRD4 at all the time-points tested |  |  | 
